Measured values taken from patent US20250302815A1, “PROTEIN TYROSINE PHOSPHATASE TARGETING LIGANDS” (CALICO LIFE SCIENCES LLC, priority 2021, published 2025).

How the values were obtained:
[1] = target: T1, PTPN2 (HiBIT-PTPN2 in 293T.109 cells) (Homo sapiens, UniProt P17706); experiment: HiBiT Degradation 293T.109 PTPN2 (Nano-Glo HiBiT Lytic Assay); type: cell-based; conditions: 24.0 hours
T1 construct: expressed in transfected cells; host or cells: 293T.109 (293T WT from ATCC)
T1 sequence (P17706 1-415): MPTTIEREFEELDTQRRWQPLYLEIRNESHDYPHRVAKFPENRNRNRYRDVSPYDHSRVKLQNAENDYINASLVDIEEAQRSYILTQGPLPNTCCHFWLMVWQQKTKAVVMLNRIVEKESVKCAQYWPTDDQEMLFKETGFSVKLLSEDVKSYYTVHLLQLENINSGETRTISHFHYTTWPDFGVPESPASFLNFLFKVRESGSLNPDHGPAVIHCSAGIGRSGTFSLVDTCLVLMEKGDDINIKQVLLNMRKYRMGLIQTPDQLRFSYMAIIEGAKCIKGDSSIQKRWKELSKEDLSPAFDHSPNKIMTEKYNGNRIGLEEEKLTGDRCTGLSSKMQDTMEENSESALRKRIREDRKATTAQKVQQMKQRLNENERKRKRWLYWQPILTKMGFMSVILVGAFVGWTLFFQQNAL
In short: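 293T.109 cells with ectopic N-terminal HiBiT-tagged PTPN2 (5000/well) exposed to compounds for 24 h at 37 °C, 5% CO2; 11-point half-log titration from 10 μM top, duplicates. Remaining HiBiT-PTPN2 read as luminescence with Nano-Glo HiBiT lytic reagent, normalised to untreated cells (0%) and reagent-free wells.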

PTPN2 (B16F10.4 cells) = target: T2, PTPN2 (B16F10.4 cells) (Mus musculus, UniProt Q06180); experiment: HiBiT Degradation B16F10.4 PTPN2; type: cell-based; conditions: 24.0 hours
T2 construct: HiBiT; host or cells: B16F10.4
T2 sequence (Q06180 1-406): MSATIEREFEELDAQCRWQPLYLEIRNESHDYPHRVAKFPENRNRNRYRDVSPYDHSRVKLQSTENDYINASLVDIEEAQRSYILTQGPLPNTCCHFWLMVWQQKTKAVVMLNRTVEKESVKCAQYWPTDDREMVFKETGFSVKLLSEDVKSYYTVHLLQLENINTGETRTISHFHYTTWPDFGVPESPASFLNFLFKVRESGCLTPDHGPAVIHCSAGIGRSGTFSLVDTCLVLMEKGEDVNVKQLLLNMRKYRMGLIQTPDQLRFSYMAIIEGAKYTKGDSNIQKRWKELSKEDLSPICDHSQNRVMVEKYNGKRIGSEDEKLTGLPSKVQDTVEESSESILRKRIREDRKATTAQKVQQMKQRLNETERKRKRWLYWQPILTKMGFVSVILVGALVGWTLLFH

| Structure (SMILES) | DC50 [1] | DC50 (PTPN2 (B16F10.4 cells)) |
| --- | --- | --- |
| Cn1c(=O)n(C2CCC(=O)NC2=O)c2ccc(N3CC(OC(=O)Nc4cccc(CS(=O)(=O)N5CC[C@H](Nc6cccc(-c7sc(C(=O)O)c(OCC(=O)O)c7Cl)c6)CC5(C)C)c4)C3)cc21 (stereo partly shown) [Example 136] | 200 to 1000 nM | ≥ 1000 nM |
| CC(C)n1c(=O)n(C2CCC(=O)NC2=O)c2ccc(C3CCN(C(=O)Nc4cccc(CS(=O)(=O)N5CC[C@H](Nc6cccc(-c7sc(C(=O)O)c(OCC(=O)O)c7Cl)c6)CC5(C)C)c4)CC3)cc21 (stereo partly shown) [Example 137] | 50 to 200 nM | 50 to 200 nM |
| Cn1c(=O)n(C2CCC(=O)NC2=O)c2ccc([C@H]3CC[C@H](C(=O)Nc4cccc(CS(=O)(=O)N5CC[C@H](Nc6cccc(-c7sc(C(=O)O)c(OCC(=O)O)c7Cl)c6)CC5(C)C)c4)CC3)cc21 (stereo partly drawn) [Example 138, 3-(carboxymethoxy)-4-chloro-5-(3-(((4S)-1-((3-((1r,4S)-4-(1-(2,6-dioxopiperidin-3-yl)-3-methyl-2-oxo-2,3-dihydro-1H-benzo[d]imidazol-5-yl)cyclohexane-1-carboxamido)benzyl)sulfonyl)-2,2-dimethylpiperidin-4-yl)amino)phenyl)thiophene-2-carboxylic acid] | < 50 nM | < 50 nM |
| Cn1c(=O)n(C2CCC(=O)NC2=O)c2ccc([C@H]3CC[C@@H](C(=O)Nc4cccc(CS(=O)(=O)N5CC[C@H](Nc6cccc(-c7sc(C(=O)O)c(OCC(=O)O)c7Cl)c6)CC5(C)C)c4)CC3)cc21 (stereo partly drawn) [Example 139, 3-(carboxymethoxy)-4-chloro-5-(3-(((4S)-1-((3-((1s,4R)-4-(1-(2,6-dioxopiperidin-3-yl)-3-methyl-2-oxo-2,3-dihydro-1H-benzo[d]imidazol-5-yl)cyclohexane-1-carboxamido)benzyl)sulfonyl)-2,2-dimethylpiperidin-4-yl)amino)phenyl)thiophene-2-carboxylic acid] | < 50 nM | 50 to 200 nM |
| Cn1c(=O)n(C2CCC(=O)NC2=O)c2ccc(N3CC4(CN(C(=O)Nc5cccc(CS(=O)(=O)N6CC[C@H](Nc7cccc(-c8sc(C(=O)O)c(OCC(=O)O)c8Cl)c7)CC6(C)C)c5)C4)C3)cc21 (stereo partly drawn) [Example 140, 3-(carboxymethoxy)-4-chloro-5-[3-[[(4S)-1-[[3-[[6-[1-(2,6-dioxo-3-piperidyl)-3-methyl-2-oxo-benzimidazol-5-yl]-2,6-diazaspiro[3.3]heptane-2-carbonyl]amino]phenyl]methylsulfonyl]-2,2-dimethyl-4-piperidyl]amino]phenyl]thiophene-2-carboxylic acid] | < 50 nM | 50 to 200 nM |
| Cn1c(=O)n(C2CCC(=O)NC2=O)c2ccc(N3CCC(N4CCN(c5cccc(CS(=O)(=O)N6CCC(Nc7cccc(-c8sc(C(=O)O)c(OCC(=O)O)c8Cl)c7)CC6)c5)C4=O)CC3)cc21 (stereo not shown) [Example 142, 3-(carboxymethoxy)-4-chloro-5-(3-((1-((3-(3-(1-(1-(2,6-dioxopiperidin-3-yl)-3-methyl-2-oxo-2,3-dihydro-1H-benzo[d]imidazol-5-yl)piperidin-4-yl)-2-oxoimidazolidin-1-yl)benzyl)sulfonyl)piperidin-4-yl)amino)phenyl)thiophene-2-carboxylic acid] | < 50 nM | 50 to 200 nM |
| Cn1nc(C2CCC(=O)NC2=O)c2ccc(C3CCN(C(=O)Nc4cccc(CS(=O)(=O)N5CC[C@H](Nc6cccc(-c7sc(C(=O)O)c(OCC(=O)O)c7Cl)c6)CC5(C)C)c4)CC3)cc21 (stereo partly drawn) [Example 143, 3-(carboxymethoxy)-4-chloro-5-[3-[[(4S)-1-[[3-[[4-[3-(2,6-dioxo-3-piperidyl)-1-methyl-indazol-6-yl]piperidine-1-carbonyl]amino]phenyl]methylsulfonyl]-2,2-dimethyl-4-piperidyl]amino]phenyl]thiophene-2-carboxylic acid] | 50 to 200 nM | 50 to 200 nM |
| Cn1c(=O)n(C2CCC(=O)NC2=O)c2ccc(Nc3ccc(C(=O)Nc4cccc(CS(=O)(=O)N5CC[C@H](Nc6cccc(-c7sc(C(=O)O)c(OCC(=O)O)c7Cl)c6)CC5(C)C)c4)cc3)cc21 (stereo partly shown) [Example 144] | < 50 nM | 50 to 200 nM |
| Cn1c(=O)n(C2CCC(=O)NC2=O)c2ccc(-c3ccc(NC(=O)Nc4cccc(CS(=O)(=O)N5CC[C@H](Nc6cccc(-c7sc(C(=O)O)c(OCC(=O)O)c7Cl)c6)CC5(C)C)c4)cc3)cc21 (stereo partly drawn) [Example 145, 3-(carboxymethoxy)-4-chloro-5-(3-(((4S)-1-((3-(3-(4-(1-(2,6-dioxopiperidin-3-yl)-3-methyl-2-oxo-2,3-dihydro-1H-benzo[d]imidazol-5-yl)phenyl)ureido)benzyl)sulfonyl)-2,2-dimethylpiperidin-4-yl)amino)phenyl)thiophene-2-carboxylic acid] | 50 to 200 nM | 50 to 200 nM |
| CC1(C)CC(Nc2cccc(-c3sc(C(=O)O)c(OCC(=O)O)c3Cl)c2F)CCN1S(=O)(=O)Cc1ccc(F)c(NC(=O)C2CN(C(=O)CNc3cccc4c3CN(C3CCC(=O)NC3=O)C4=O)C2)c1 (stereo not shown) [Example 146, 3-(carboxymethoxy)-4-chloro-5-[3-[[1-[[3-[[1-[2-[[2-(2,6-dioxo-3-piperidyl)-1-oxo-isoindolin-4-yl]amino]acetyl]azetidine-3-carbonyl]amino]-4-fluoro-phenyl]methylsulfonyl]-2,2-dimethyl-4-piperidyl]amino]-2-fluoro-phenyl]thiophene-2-carboxylic acid] | < 50 nM | 200 to 1000 nM |
| Cn1c(=O)n(C2CCC(=O)NC2=O)c2ccc(C3CCN(C(=O)Nc4cccc(CS(=O)(=O)N5CC[C@H](Nc6cccc(-c7sc(C(=O)O)c(OCC(=O)O)c7Cl)c6)CC5(C)C)c4)CC3(F)F)cc21 (stereo partly drawn) [Example 147, 3-(carboxymethoxy)-4-chloro-5-[3-[[(4S)-1-[[3-[[4-[1-(2,6-dioxo-3-piperidyl)-3-methyl-2-oxo-benzimidazol-5-yl]-3,3-difluoro-piperidine-1-carbonyl]amino]phenyl]methylsulfonyl]-2,2-dimethyl-4-piperidyl]amino]phenyl]thiophene-2-carboxylic acid] | < 50 nM | < 50 nM |

The remaining lines, values ahead:

| DC50 [1] | DC50 (PTPN2 (B16F10.4 cells)) | Structure (SMILES) |
| --- | --- | --- |
| < 50 nM | 50 to 200 nM | CC1(C)C[C@@H](Nc2cccc(-c3sc(C(=O)O)c(OCC(=O)O)c3Cl)c2F)CCN1S(=O)(=O)Cc1ccc(F)c(NC(=O)C2CN(C(=O)CNc3cccc4c3CN(C3CCC(=O)NC3=O)C4=O)C2)c1 (stereo partly drawn) [Example 148, 3-(carboxymethoxy)-4-chloro-5-[3-[[(4S)-1-[[3-[[1-[2-[[2-(2,6-dioxo-3-piperidyl)-1-oxo-isoindolin-4-yl]amino]acetyl]azetidine-3-carbonyl]amino]-4-fluoro-phenyl]methylsulfonyl]-2,2-dimethyl-4-piperidyl]amino]-2-fluoro-phenyl]thiophene-2-carboxylic acid] |
| 50 to 200 nM | ≥ 1000 nM | CC1(C)C[C@H](Nc2cccc(-c3sc(C(=O)O)c(OCC(=O)O)c3Cl)c2F)CCN1S(=O)(=O)Cc1ccc(F)c(NC(=O)C2CN(C(=O)CNc3cccc4c3CN(C3CCC(=O)NC3=O)C4=O)C2)c1 (stereo partly shown) [Example 149] |
| 50 to 200 nM | 50 to 200 nM | CC1(C)C[C@@H](Nc2cccc(-c3sc(C(=O)O)c(OCC(=O)O)c3Cl)c2)CCN1S(=O)(=O)Cc1cccc(NC(=O)N2CCC(c3ccc4c(c3)C3(CC3)C(=O)N4C3CCC(=O)NC3=O)CC2)c1 (stereo partly shown) [Example 150] |
| 200 to 1000 nM | 200 to 1000 nM | Cn1c(=O)n(C2CCC(=O)NC2=O)c2cccc(OC3CCN(C(=O)Nc4cccc(CS(=O)(=O)N5CC[C@H](Nc6cccc(-c7sc(C(=O)O)c(OCC(=O)O)c7Cl)c6)CC5(C)C)c4)CC3)c21 (stereo partly shown) [Example 151] |
| 50 to 200 nM | 50 to 200 nM | Cn1c(=O)n(C2CCC(=O)NC2=O)c2ccc(C3CCN(C(=O)Nc4cccc(CS(=O)(=O)N5CC[C@H](Nc6cccc(-c7sc(C(=O)O)c(OCC(=O)O)c7Cl)c6)CC5(C)C)c4)CC3)c(F)c21 (stereo partly drawn) [Example 152, 3-(carboxymethoxy)-4-chloro-5-[3-[[(4S)-1-[[3-[[4-[1-(2,6-dioxo-3-piperidyl)-4-fluoro-3-methyl-2-oxo-benzimidazol-5-yl]piperidine-1-carbonyl]amino]phenyl]methylsulfonyl]-2,2-dimethyl-4-piperidyl]amino]phenyl]thiophene-2-carboxylic acid] |
| 50 to 200 nM | 200 to 1000 nM | Cn1c(=O)n(C2CCC(=O)NC2=O)c2cc(F)c(C3CCN(C(=O)Nc4cccc(CS(=O)(=O)N5CC[C@H](Nc6cccc(-c7sc(C(=O)O)c(OCC(=O)O)c7Cl)c6)CC5(C)C)c4)CC3)cc21 (stereo partly drawn) [Example 153, 3-(carboxymethoxy)-4-chloro-5-[3-[[(4S)-1-[[3-[[4-[1-(2,6-dioxo-3-piperidyl)-6-fluoro-3-methyl-2-oxo-benzimidazol-5-yl]piperidine-1-carbonyl]amino]phenyl]methylsulfonyl]-2,2-dimethyl-4-piperidyl]amino]phenyl]thiophene-2-carboxylic acid] |
